Assay results from PubChem BioAssay AID272 (DTP/NCI, 2004).
Inconclusive results are not listed.

System: Lewis lung carcinoma i.m., BDF1 mice, T/C %
Assay: NCI In Vivo Anticancer Drug Screen. Data for tumor model Lewis Lung Carcinoma (intramuscular) in B6D2F1 (BDF1) mice
Method in brief: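 Transplantable tumour model; readout survival or tumour size; value = treated (T) / vehicle control (C).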

## Nc1nc(=S)c2ncn(C3CC(O)C(CO)O3)c2[nH]1 (configuration not stated)
endpoint: mean tumor weight, dose: 3.12 mg/kg/injection, schedule: Q01DX011 (ip), vehicle: other, higher = larger tumour
  T/C: 120 % of control
endpoint: mean tumor weight, dose: 6.25 mg/kg/injection, schedule: Q01DX011 (ip), vehicle: other, higher = larger tumour
  T/C: 112 % of control
endpoint: mean tumor weight, dose: 12.5 mg/kg/injection, schedule: Q01DX011 (ip), vehicle: other, higher = larger tumour
  T/C: 120 % of control
endpoint: mean tumor weight, dose: 25.0 mg/kg/injection, schedule: Q01DX011 (ip), vehicle: other, higher = larger tumour
  T/C: 69 % of control
endpoint: median survival time, dose: 1.56 mg/kg/injection, schedule: Q01DX011 (ip), vehicle: other, higher = longer survival
  T/C: 112 % of control
endpoint: median survival time, dose: 3.12 mg/kg/injection, schedule: Q01DX011 (ip), vehicle: other, higher = longer survival
  T/C: 95 % of control
endpoint: median survival time, dose: 6.25 mg/kg/injection, schedule: Q01DX011 (ip), vehicle: other, higher = longer survival
  T/C: 102 % of control
endpoint: median survival time, dose: 12.5 mg/kg/injection, schedule: Q01DX011 (ip), vehicle: other, higher = longer survival
  T/C: 112 % of control
endpoint: median survival time, dose: 25.0 mg/kg/injection, schedule: Q01DX011 (ip), vehicle: other, higher = longer survival
  T/C: 112 % of control

## N=c1ccn2c(n1)OC1C(OP(=O)(O)O)C(CO)OC12 (configuration not stated)
endpoint: mean tumor weight (est.), dose: 12.5 mg/kg/injection, schedule: Q01DX011 (oral), vehicle: water, higher = larger tumour
  T/C: 79 % of control
endpoint: mean tumor weight (est.), dose: 25.0 mg/kg/injection, schedule: Q01DX011 (oral), vehicle: water, higher = larger tumour
  T/C: 71 % of control
endpoint: mean tumor weight (est.), dose: 50.0 mg/kg/injection, schedule: Q01DX011 (oral), vehicle: water, higher = larger tumour
  T/C: 13 % of control
endpoint: mean tumor weight (est.), dose: 100.0 mg/kg/injection, schedule: Q01DX011 (oral), vehicle: water, higher = larger tumour
  T/C: 12 % of control
endpoint: mean tumor weight (est.), dose: 200.0 mg/kg/injection, schedule: Q01DX011 (oral), vehicle: water, higher = larger tumour
  T/C: 12 % of control
endpoint: median survival time, dose: 12.5 mg/kg/injection, schedule: Q01DX011 (oral), vehicle: water, higher = longer survival
  T/C: 109 % of control
endpoint: median survival time, dose: 25.0 mg/kg/injection, schedule: Q01DX011 (oral), vehicle: water, higher = longer survival
  T/C: 105 % of control
endpoint: median survival time, dose: 50.0 mg/kg/injection, schedule: Q01DX011 (oral), vehicle: water, higher = longer survival
  T/C: 118 % of control
endpoint: median survival time, dose: 100.0 mg/kg/injection, schedule: Q01DX011 (oral), vehicle: water, higher = longer survival
  T/C: 120 % of control
endpoint: median survival time, dose: 200.0 mg/kg/injection, schedule: Q01DX011 (oral), vehicle: water, higher = longer survival
  T/C: 116 % of control

## Cc1c(N)nc(C(CC(N)=O)NCC(N)C(N)=O)nc1C(=O)NC(C(=O)NC(C)C(O)C(C)C(=O)NC(C(=O)NCCc1nc(-c2nc(C(=O)NCCCNCCCCN)cs2)cs1)C(C)O)C(OC1OC(CO)C(O)C(O)C1OC1OC(CO)C(O)C(OC(N)=O)C1O)c1cnc[nH]1 (configuration not stated)
endpoint: median survival time, dose: 3.9 mg/kg/injection, schedule: Q01DX011 (ip), vehicle: saline, higher = longer survival
  T/C: 120 % of control
endpoint: median survival time, dose: 10.8 mg/kg/injection, schedule: Q01DX011 (ip), vehicle: saline, higher = longer survival
  T/C: 150 % of control
endpoint: median survival time, dose: 18.0 mg/kg/injection, schedule: Q01DX011 (ip), vehicle: saline, higher = longer survival
  T/C: 152 % of control

## O=c1[nH]c2cc(Cl)ccc2c(CCl)c1Cl
endpoint: mean tumor weight, dose: 25.0 mg/kg/injection, schedule: Q01DX011 (ip), vehicle: saline, higher = larger tumour
  T/C: 112 % of control
endpoint: mean tumor weight, dose: 50.0 mg/kg/injection, schedule: Q01DX011 (ip), vehicle: saline, higher = larger tumour
  T/C: 101 % of control
endpoint: mean tumor weight, dose: 100.0 mg/kg/injection, schedule: Q01DX011 (ip), vehicle: saline, higher = larger tumour
  T/C: 115 % of control
endpoint: median survival time, dose: 25.0 mg/kg/injection, schedule: Q01DX011 (ip), vehicle: saline, higher = longer survival
  T/C: 95 % of control
endpoint: median survival time, dose: 50.0 mg/kg/injection, schedule: Q01DX011 (ip), vehicle: saline, higher = longer survival
  T/C: 102 % of control
endpoint: median survival time, dose: 100.0 mg/kg/injection, schedule: Q01DX011 (ip), vehicle: saline, higher = longer survival
  T/C: 89 % of control

## N[C@H](C(=O)O)[C@@H]1CC(Cl)=NO1
endpoint: median survival time, dose: 1.0 mg/kg/injection, schedule: Q01DX013 (ip), vehicle: saline, higher = longer survival
  T/C: 101 % of control
endpoint: median survival time, dose: 2.0 mg/kg/injection, schedule: Q01DX013 (ip), vehicle: saline, higher = longer survival
  T/C: 100 % of control

## CC(SC(C)C(=O)NN)C(=O)NN (configuration not stated)
endpoint: mean tumor weight (est.), dose: 138.75 mg/kg/injection, schedule: Q01DX011 (ip), vehicle: saline, higher = larger tumour
  T/C: 80 % of control
endpoint: mean tumor weight (est.), dose: 277.5 mg/kg/injection, schedule: Q01DX011 (ip), vehicle: saline, higher = larger tumour
  T/C: 87 % of control
endpoint: mean tumor weight (est.), dose: 555.0 mg/kg/injection, schedule: Q01DX011 (ip), vehicle: saline, higher = larger tumour
  T/C: 76 % of control
endpoint: median survival time, dose: 138.75 mg/kg/injection, schedule: Q01DX011 (ip), vehicle: saline, higher = longer survival
  T/C: 90 % of control
endpoint: median survival time, dose: 277.5 mg/kg/injection, schedule: Q01DX011 (ip), vehicle: saline, higher = longer survival
  T/C: 96 % of control
endpoint: median survival time, dose: 555.0 mg/kg/injection, schedule: Q01DX011 (ip), vehicle: saline, higher = longer survival
  T/C: 90 % of control

## Clc1ccc2nc(CBr)cnc2c1
endpoint: mean tumor weight (est.), dose: 6.25 mg/kg/injection, schedule: Q01DX011 (ip), vehicle: saline with Tween-80, higher = larger tumour
  T/C: 64 % of control
endpoint: mean tumor weight (est.), dose: 12.5 mg/kg/injection, schedule: Q01DX011 (ip), vehicle: saline with Tween-80, higher = larger tumour
  T/C: 77 % of control
endpoint: mean tumor weight (est.), dose: 25.0 mg/kg/injection, schedule: Q01DX011 (ip), vehicle: saline with Tween-80, higher = larger tumour
  T/C: 81 % of control
endpoint: median survival time, dose: 6.25 mg/kg/injection, schedule: Q01DX011 (ip), vehicle: saline with Tween-80, higher = longer survival
  T/C: 105 % of control
endpoint: median survival time, dose: 12.5 mg/kg/injection, schedule: Q01DX011 (ip), vehicle: saline with Tween-80, higher = longer survival
  T/C: 105 % of control
endpoint: median survival time, dose: 25.0 mg/kg/injection, schedule: Q01DX011 (ip), vehicle: saline with Tween-80, higher = longer survival
  T/C: 103 % of control
